Measurements taken from ChEMBL document CHEMBL4483862, “Open-source discovery of chemical leads for next-generation chemoprotective antimalarials” (2018).

System: Plasmodium berghei
Experiment: Luciferase/luciferin-expressing antifolate-resistant parasites were used to infect a culture of HepG2 cells that were pre-incubated with compounds. Infected hepatocytes emit light due to the luciferase reaction. Assay results are presented as the percent inhibition of light emission compared to control. […]
Type: functional
Details: sporozoite; for IC90: read-out: LUCIFERASE INFECTION ASSAY - IC90

Compound | IC90 [µM] | other results
CN(C(=O)COC(=O)c1nc(Cl)c(Cl)c(Cl)c1Cl)C1CCS(=O)(=O)C1 (configuration not stated) | > 10 | IC50 (HEPG2TOX_HILL_SLOPE 15.2, HEPG2TOX_R_SQUARED 0.451, read-out: LUCIFERASE INFECTION ASSAY - IC50): > 10 µM
CC1CCCCC1NC(=O)/C(C#N)=C/C=C/c1ccccc1[N+](=O)[O-] (configuration not stated) | > 10 | IC50 (HEPG2TOX_HILL_SLOPE 14.8, 8.85, HEPG2TOX_R_SQUARED 0.251, 0.979, PBLUC_HILL_SLOPE 2.96, PBLUC_R_SQUARED 0.503, read-out: LUCIFERASE INFECTION ASSAY - IC50): 8.55 µM
COc1ccc(CC(N)c2csc(NC(=O)C(c3ccccc3)c3ccccc3)n2)cc1 (configuration not stated) | 5.8 | IC50 (HEPG2TOX_HILL_SLOPE 15.4, HEPG2TOX_R_SQUARED 0.86, PBLUC_HILL_SLOPE 4.59, PBLUC_R_SQUARED 0.756, read-out: LUCIFERASE INFECTION ASSAY - IC50): 3.59 µM
N#Cc1ccc(OC(=O)c2c(Cl)cccc2Cl)cc1 | > 11.3 | IC50 (HEPG2TOX_HILL_SLOPE 15.2, HEPG2TOX_R_SQUARED 0.237, read-out: LUCIFERASE INFECTION ASSAY - IC50): > 11.3 µM
O=c1c(Cl)c(Cl)cnn1-c1ccc(S(=O)(=O)NCCCOCC2CC2)cc1 | 4.65 | IC50 (HEPG2TOX_HILL_SLOPE 15.7, HEPG2TOX_R_SQUARED 0.58, PBLUC_HILL_SLOPE 8.81, PBLUC_R_SQUARED 0.0863, read-out: LUCIFERASE INFECTION ASSAY - IC50): 3.62 µM
CNC(=O)c1cccc(NC(=O)c2ccc3[nH]c4c(c3c2)CCCC4)c1 | > 10 | IC50 (HEPG2TOX_HILL_SLOPE 15.2, HEPG2TOX_R_SQUARED 0.62, read-out: LUCIFERASE INFECTION ASSAY - IC50): > 10 µM
Cc1nn(-c2ccccc2)c(C)c1C(=O)ONC(=N)c1ccc(C(C)(C)C)cc1 | 3.03 | IC50 (HEPG2TOX_HILL_SLOPE 14.9, HEPG2TOX_R_SQUARED 0.924, PBLUC_HILL_SLOPE 26.9, PBLUC_R_SQUARED 0.601, read-out: LUCIFERASE INFECTION ASSAY - IC50): 2.79 µM
Cc1csc(NC(=O)Nc2cc(C(F)(F)F)cc(C(F)(F)F)c2)c1 | 3.4 | IC50 (HEPG2TOX_HILL_SLOPE 15.4, HEPG2TOX_R_SQUARED 0.694, PBLUC_HILL_SLOPE 2.82, PBLUC_R_SQUARED 0.474, read-out: LUCIFERASE INFECTION ASSAY - IC50): 1.56 µM
COc1ccc2cc(CN(C)C(C)C(=O)NCc3ccc(F)cc3)ccc2c1 (configuration not stated) | > 10 | IC50 (HEPG2TOX_HILL_SLOPE 14.9, HEPG2TOX_R_SQUARED 0.671, read-out: LUCIFERASE INFECTION ASSAY - IC50): > 10 µM
CCOC(=O)c1cc(C#N)c(Sc2n[nH]c(=O)n2C(C)C)nc1C(F)(F)F | > 8.22 | IC50 (HEPG2TOX_HILL_SLOPE 15.1, HEPG2TOX_R_SQUARED 0.842, PBLUC_HILL_SLOPE 4.42, PBLUC_R_SQUARED 0.232, read-out: LUCIFERASE INFECTION ASSAY - IC50): 5.41 µM
CC(C)N1C(=O)N(CCc2ccccc2)C2(CCN(Cc3ccccc3)CC2)C1=O | > 8.14 | IC50 (HEPG2TOX_HILL_SLOPE 15.6, HEPG2TOX_R_SQUARED 0.916, PBLUC_HILL_SLOPE 3.95, PBLUC_R_SQUARED 0.588, read-out: LUCIFERASE INFECTION ASSAY - IC50): 4.99 µM
C=CCc1ccccc1OCC(O)CNC(C)(C)CC(C)(C)C (configuration not stated) | 4.91 | IC50 (HEPG2TOX_HILL_SLOPE 15.1, HEPG2TOX_R_SQUARED 0.905, PBLUC_HILL_SLOPE 217, PBLUC_R_SQUARED 0.361, read-out: LUCIFERASE INFECTION ASSAY - IC50): 4.86 µM
Cc1ccc(O)c(C(=O)NCCc2ccc3c(c2)OCCO3)c1 | 7.45 | IC50 (HEPG2TOX_HILL_SLOPE 15.5, HEPG2TOX_R_SQUARED 0.566, PBLUC_HILL_SLOPE 1.92, PBLUC_R_SQUARED 0.779, read-out: LUCIFERASE INFECTION ASSAY - IC50): 2.37 µM
CCOc1ccc2ccccc2c1/C=C/c1ccc2cccc(O)c2n1 | 3.84 | IC50 (HEPG2TOX_HILL_SLOPE 14.8, HEPG2TOX_R_SQUARED 0.407, PBLUC_HILL_SLOPE 11.5, PBLUC_R_SQUARED 0.372, read-out: LUCIFERASE INFECTION ASSAY - IC50): 3.17 µM
CCn1c(C)nc2cc(C(=O)N/N=C/c3sc(N4CCCCC4)nc3-c3cccs3)ccc21 | 4.03 | IC50 (HEPG2TOX_HILL_SLOPE 15, HEPG2TOX_R_SQUARED 0.462, PBLUC_HILL_SLOPE 10.3, PBLUC_R_SQUARED 0.738, read-out: LUCIFERASE INFECTION ASSAY - IC50): 3.26 µM
COc1cc(-c2nc3ccc(NC(=O)Nc4cccc(C(F)(F)F)c4)cn3n2)cc(OC)c1OC | 8.43 | IC50 (HEPG2TOX_HILL_SLOPE 15.4, HEPG2TOX_R_SQUARED 0.156, PBLUC_HILL_SLOPE 4.31, PBLUC_R_SQUARED 0.169, read-out: LUCIFERASE INFECTION ASSAY - IC50): 5.06 µM

Compound | IC90 [µM] | other results
CCOc1cc(CNCc2nc3ccccc3[nH]2)ccc1OCc1cccs1 | > 10 | IC50 (HEPG2TOX_HILL_SLOPE 15, HEPG2TOX_R_SQUARED 0.655, PBLUC_HILL_SLOPE 1.7, PBLUC_R_SQUARED 0.452, read-out: LUCIFERASE INFECTION ASSAY - IC50): 4.17 µM
COc1cc2c(cc1OC)CN(C(=O)CCN1c3ccccc3Sc3ccccc31)CC2 | 8.48 | IC50 (HEPG2TOX_HILL_SLOPE 15.5, HEPG2TOX_R_SQUARED 0.469, PBLUC_HILL_SLOPE 3.54, PBLUC_R_SQUARED 0.432, read-out: LUCIFERASE INFECTION ASSAY - IC50): 4.56 µM
COc1ccc(OC)c(C(=O)/C=C/c2cc(Br)cs2)c1 | 5.17 | IC50 (HEPG2TOX_HILL_SLOPE 14.7, HEPG2TOX_R_SQUARED 0.849, PBLUC_HILL_SLOPE 92.6, PBLUC_R_SQUARED 0.363, read-out: LUCIFERASE INFECTION ASSAY - IC50): 5.05 µM
N#CC1(c2ccccc2)C/C(=C\c2cccnc2)C(=O)/C(=C/c2cccnc2)C1 (configuration not stated) | 4.83 | IC50 (HEPG2TOX_HILL_SLOPE 15.6, HEPG2TOX_R_SQUARED 0.458, PBLUC_HILL_SLOPE 155, PBLUC_R_SQUARED 0.194, read-out: LUCIFERASE INFECTION ASSAY - IC50): 4.76 µM
C=C(c1ccccc1)[n+]1ccc(C(=O)c2ccccc2)cc1 | > 9.01 | IC50 (HEPG2TOX_HILL_SLOPE 15.5, HEPG2TOX_R_SQUARED 0.47, PBLUC_HILL_SLOPE 4.11, PBLUC_R_SQUARED 0.394, read-out: LUCIFERASE INFECTION ASSAY - IC50): 5.35 µM
Cc1nc(NC(=O)CSc2nnc(-c3c[nH]c4ccccc34)n2C2CC2)c(Cl)cc1Cl | > 10 | IC50 (HEPG2TOX_HILL_SLOPE 15.3, 2.10, HEPG2TOX_R_SQUARED 0.288, 0.992, PBLUC_HILL_SLOPE 2.43, PBLUC_R_SQUARED 0.583, read-out: LUCIFERASE INFECTION ASSAY - IC50): 4.48 µM
CCOc1ccc(-c2cc(-c3ccc(S(C)(=O)=O)cc3)nc3c2cnn3C(C)C)cc1 | > 10 | IC50 (HEPG2TOX_HILL_SLOPE 15.4, HEPG2TOX_R_SQUARED 0.615, PBLUC_HILL_SLOPE 23, PBLUC_R_SQUARED 0.199, read-out: LUCIFERASE INFECTION ASSAY - IC50): 9.21 µM
COc1ccc(C(C)=O)cc1COc1cccc(C(=O)NCc2ccccc2)c1 | 9.35 | IC50 (HEPG2TOX_HILL_SLOPE 15.6, HEPG2TOX_R_SQUARED 0.727, PBLUC_HILL_SLOPE 15.6, PBLUC_R_SQUARED 0.0647, read-out: LUCIFERASE INFECTION ASSAY - IC50): 8.12 µM
CC(C)n1ncc2c(C(=O)Nc3ccc(N4CCN(C)CC4)nc3)cc(-c3cccs3)nc21 | 8.59 | IC50 (HEPG2TOX_HILL_SLOPE 15.5, HEPG2TOX_R_SQUARED 0.177, PBLUC_HILL_SLOPE 20.4, 20.5, PBLUC_R_SQUARED 0.223, 0.421, read-out: LUCIFERASE INFECTION ASSAY - IC50): 7.71 µM
CC(C)(C)c1csc(NC(=O)c2ccc(Br)cc2)n1 | 8.74 | IC50 (HEPG2TOX_HILL_SLOPE 15.1, HEPG2TOX_R_SQUARED 0.819, PBLUC_HILL_SLOPE 4.4, PBLUC_R_SQUARED 0.25, read-out: LUCIFERASE INFECTION ASSAY - IC50): 5.3 µM
FC1(F)Oc2ccc(Nc3cc(-c4cc(Cl)cc(Cl)c4)ncn3)cc2OC1(F)F | > 7.4 | IC50 (HEPG2TOX_HILL_SLOPE 15.2, HEPG2TOX_R_SQUARED 0.834, PBLUC_HILL_SLOPE 14.8, PBLUC_R_SQUARED 0.0861, read-out: LUCIFERASE INFECTION ASSAY - IC50): 6.88 µM
CCc1cccc2c(C3=NNC(=Nc4ccc(S(=O)(=O)N5CCOCC5)cc4)SC3)c[nH]c12 | > 10 | IC50 (HEPG2TOX_HILL_SLOPE 14.9, HEPG2TOX_R_SQUARED 0.843, PBLUC_HILL_SLOPE 3.05, PBLUC_R_SQUARED 0.104, read-out: LUCIFERASE INFECTION ASSAY - IC50): 5.65 µM
NC(CCc1ccccc1)c1csc(Nc2ccc(C(=O)NCc3ccco3)cn2)n1 (configuration not stated) | 7.53 | IC50 (HEPG2TOX_HILL_SLOPE 15.2, HEPG2TOX_R_SQUARED 0.624, PBLUC_HILL_SLOPE 17, PBLUC_R_SQUARED 0.625, read-out: LUCIFERASE INFECTION ASSAY - IC50): 6.62 µM
Nc1c(C(=O)c2ccc3c(c2)NC(=O)CO3)sc2c1c(=O)[nH]c(=O)n2Cc1ccccc1 | > 10 | IC50 (HEPG2TOX_HILL_SLOPE 15, HEPG2TOX_R_SQUARED 0.948, PBLUC_HILL_SLOPE 0.935, PBLUC_R_SQUARED 0.804, read-out: LUCIFERASE INFECTION ASSAY - IC50): 1.58 µM
O=C(NCCCn1cnc2ccccc21)c1[nH]nc2ccccc12 | > 10 | IC50 (HEPG2TOX_HILL_SLOPE 14.9, HEPG2TOX_R_SQUARED 0.872, PBLUC_HILL_SLOPE 4.15, PBLUC_R_SQUARED 0.429, read-out: LUCIFERASE INFECTION ASSAY - IC50): 6.32 µM
